This is an account of results in patent US20240025891A1 (Celgene Corporation, priority 2020, published 2024).

The test system of this test is Dirofilaria immitis microfilariae and 4th stage larvae (L4). The test is described as follows: Heartworm screen Dirofilaria immitis (DiMF and DiL4 assays). Type of test: cell-based. The following applies: read-out: D. immitis Act class. The procedure: Heartworm Screen Dirofilaria immitis (D. immitis)
Dirofilaria immitis, Microfilaria (DiMF) Assay. Compounds were dissolved and serially diluted in DMSO. Aliquots were spotted to the empty wells of assay plates. Media and microfilariae of Dirofilaria immitis were added to each well to dilute the test compounds to the desired concentrations. Assay plates were incubated for approximately 72 hours, and the larvae in each well were observed microscopically for drug effect. Microfilariae in each well were assessed subjectively for survival or paralysis, and results were reported as Minimum Effective Dose (MED).
Dirofilaria immitis, L4 stage (DiL4) Assay. Compounds were dissolved and serially diluted in DMSO. Aliquots were spotted to the empty wells of assay plates. Media and 4th stage larvae (L4) of Dirofilaria immitis were added to each well to dilute the test compounds to the desired concentrations. Assay plates were incubated for approximately 72 hours, and the larvae in each well were observed microscopically for drug effect. Larvae in each well were assessed subjectively for survival or paralysis, and results were reported as Minimum Effective Dose (MED).
Active and selective (DiL4 vs. DiMF potency) example compounds were subsequently evaluated in heartworm positive dog studies to correlate the in vitro selectivity profile with in vivo effects on circulating microfilariae.
Consider `c1ccc(-c2csc(Nc3cc(C4CC4)ccn3)n2)nc1` [Example 176, N-(4-cyclopropyl-pyridin-2-yl)-4-(pyridin-2-yl)thiazol-2-amine], for which the IC50 is under 200 nM.

As for `Cc1cc(C(F)(F)F)cnc1Nc1nc(-c2cc3c(cn2)N(C)CC3)cs1` [Example 97, 4-(1-methyl-2,3-dihydro-1H-pyrrolo[2,3-c]pyridin-5-yl)-N-(3-methyl-5-(trifluoromethyl)pyridin-2-yl)thiazol-2-amine], the IC50 was under 200 nM.

Turning to `COc1cccnc1-c1csc(Nc2cc(C)ccn2)n1` [Example 7], the IC50 fell in the range of 200 to 500 nM. Consider `CCOc1ccc(-c2csc(Nc3cccc(C)n3)n2)nc1` [Example 90, 4-(5-ethoxypyridin-2-yl)-N-(6-methylpyridin-2-yl)thiazol-2-amine], for which the IC50 is 500 to 5000 nM. In the case of `Cc1ccnc(Nc2nc(-c3ncccc3-c3ccccc3)cs2)c1` [Example 103, N-(4-methylpyridin-2-yl)-4-(3-phenylpyridin-2-yl)thiazol-2-amine], the IC50 was under 200 nM. The result for `c1ccc(-c2csc(Nc3cc4ccccc4cn3)n2)nc1` [Example 128, N-(isoquinolin-3-yl)-4-(pyridin-2-yl)thiazol-2-amine] reads 200 to 500 nM; that for `c1ccc(-c2csc(Nc3cc4[nH]ccc4cn3)n2)nc1` [Example 136, 4-(pyridin-2-yl)-N-(1H-pyrrolo [3,2-c]pyridin-6-yl)thiazol-2-amine], 500 to 5000 nM. `c1ccc(-c2ccc(Nc3nc(-c4ccccn4)cs3)nc2)cc1` [Example 221, N-(5-phenylpyridin-2-yl)-4-(pyridin-2-yl)thiazol-2-amine]: the IC50 was under 200 nM.

On to `Cc1ccnc(Nc2nc(-c3ccccn3)c(C)s2)c1` [Example 132, 5-methyl-N-(4-methyl-pyridin-2-yl)-4-(pyridin-2-yl)thiazol-2-amine], for which the IC50 lay within 200 to 500 nM. As to `Cc1ccnc(Nc2nc(-c3ccccn3)c(CCOC3CCC3)s2)c1` [Example 180, 5-(2-cyclobutoxy-ethyl)-N-(4-methylpyridin-2-yl)-4-(pyridin-2-yl)thiazol-2-amine], the IC50 was under 200 nM. For the molecule `Cc1cccnc1Nc1nc(-c2ccc(Cl)cn2)cs1` [Example 94, 4-(5-chloropyridin-2-yl)-N-(3-methylpyridin-2-yl)thiazol-2-amine], the IC50 is 200 to 500 nM.

In the case of `Cc1ccnc(Nc2nc(-c3cc(C)ccn3)cs2)c1` [Example 220, N,4-bis(4-methylpyridin-2-yl)thiazol-2-amine], the IC50 is under 200 nM. For `c1ccc(-c2csc(Nc3cc(C4CCC4)ccn3)n2)nc1` [Example 168, N-(4-cyclobutyl-pyridin-2-yl)-4-(pyridin-2-yl)thiazol-2-amine], the IC50 is under 200 nM. `c1ccc(-c2csc(Nc3cc(-c4cccc5ccccc45)ccn3)n2)nc1` [Example 175, N-(4-(naphthalen-1-yl)pyridin-2-yl)-4-(pyridin-2-yl)thiazol-2-amine]: the IC50 was under 200 nM. For the molecule `CCOc1cccc(-c2csc(Nc3ncccc3C)n2)n1` [Example 71], the IC50 is 500 to 5000 nM. The result for `c1ccc(-c2csc(Nc3cc(-c4cnccn4)ccn3)n2)nc1` [Example 173, N-(4-(pyrazin-2-yl)pyridin-2-yl)-4-(pyridin-2-yl)thiazol-2-amine] reads 200 to 500 nM. For `c1ccc(-c2csc(Nc3cc(-c4cccnn4)ccn3)n2)nc1` [Example 169, N-(4-(pyridazin-3-yl)pyridin-2-yl)-4-(pyridin-2-yl)thiazol-2-amine], the IC50 fell in the range of 500 to 5000 nM. The figure for `CSc1ccc(-c2csc(Nc3ncccc3C)n2)nc1` [Example 80, N-(3-methylpyridin-2-yl)-4-(5-(methylthio)pyridin-2-yl)thiazol-2-amine] is under 200 nM; for `CCOc1cnc(-c2csc(Nc3cc(C)ccn3)n2)c(C)c1` [Example 74, 4-(5-ethoxy-3-methylpyridin-2-yl)-N-(4-methylpyridin-2-yl)thiazol-2-amine] it is under 200 nM; for `CCOc1ccc(-c2csc(Nc3ccc(C(F)(F)F)cn3)n2)nc1` [Example 95, 4-(5-ethoxypyridin-2-yl)-N-(5-(trifluoromethyl)pyridin-2-yl)thiazol-2-amine] it is under 200 nM. Regarding `c1ccc(-c2csc(Nc3ccc(C4CCCC4)cn3)n2)nc1` [Example 138, N-(5-cyclopentyl-pyridin-2-yl)-4-(pyridin-2-yl)thiazol-2-amine], the IC50 is under 200 nM. Take `CCOc1ccc(-c2csc(Nc3ncc(F)cc3C)n2)nc1` [Example 79, 4-(5-ethoxypyridin-2-yl)-N-(5-fluoro-3-methylpyridin-2-yl)thiazol-2-amine]: the IC50 is 200 to 500 nM.

As to `CCOc1ccc(Nc2nc(-c3ccc(OCC)cn3)cs2)nc1` [Example 87, N,4-bis(5-ethoxypyridin-2-yl)thiazol-2-amine], the IC50 is under 200 nM. For the molecule `FC(F)(F)c1ccc(Nc2nc(-c3ccccn3)cs2)nc1` [Example 217, 4-(pyridin-2-yl)-N-(5-(trifluoromethyl)pyridin-2-yl)thiazol-2-amine], the IC50 is under 200 nM.

On to `Cc1ccnc(Nc2nc(-c3ccc(Cl)cn3)cs2)c1` [Example 89, 4-(5-chloropyridin-2-yl)-N-(4-methylpyridin-2-yl)thiazol-2-amine], for which the IC50 is 200 to 500 nM.

In the case of `CCOc1ccc(-c2csc(Nc3ncc(C)cc3C)n2)nc1` [Example 88, N-(3,5-dimethylpyridin-2-yl)-4-(5-ethoxypyridin-2-yl)thiazol-2-amine], the IC50 was under 200 nM. For `CC(=O)N(C)c1cc(C(F)(F)F)cnc1Nc1nc(-c2ccc(OC(C)C)cn2)cs1` [Example 93, N-(2-(4-(5-isopropoxypyridin-2-yl)thiazol-2-ylamino)-5-(trifluoromethyl)pyridin-3-yl)-N-methylacetamide], the IC50 was 500 to 5000 nM. The figure for `Cc1ccnc(Nc2nc(-c3ccccn3)c(C(C)(C)C)s2)c1` [Example 181, 5-tert-butyl-N-(4-methylpyridin-2-yl)-4-(pyridin-2-yl)thiazol-2-amine] is 500 to 5000 nM. Turning to `O=C(NC1CC1)c1ccnc(Nc2nc(-c3ccccn3)cs2)c1` [Example 170, N-cyclopropyl-2-(4-(pyridin-2-yl)thiazol-2-ylamino) isonicotinamide], the IC50 lay within 500 to 5000 nM. For the molecule `Cc1cccnc1-c1csc(Nc2cc(-c3ccccc3)ccn2)n1` [Example 100, 4-(3-methylpyridin-2-yl)-N-(4-phenylpyridin-2-yl)thiazol-2-amine], the IC50 fell in the range of 200 to 500 nM. Consider `CC(C)c1cnc(Nc2nc(-c3ccccn3)cs2)cc1C(F)(F)F` [Example 127, N-(5-isopropyl-4-(trifluoro-methyl)pyridin-2-yl)-4-(pyridin-2-yl)thiazol-2-amine], for which the IC50 was under 200 nM. Turning to `CCOc1ccc(-c2csc(Nc3ccc(C)cn3)n2)nc1` [Example 81, 4-(5-ethoxypyridin-2-yl)-N-(5-methylpyridin-2-yl)thiazol-2-amine], the IC50 was under 200 nM.
